Laboratory results from US20070155771A1, “Methods and means for treating protein conformational disorders” (priority 2003, published 2007).

Columns and labels:
[1] = cited from earlier work
[2] = system: LC3-stained vesicles (autophagosomes); experiment: Number of LC3-stained vesicles (autophagic activity); type: cell-based; conditions: rapamycin treatment
Text: Immunocytochemistry was done in COS-7 cells fixed with 4% paraformaldehyde (Sigma). Free-floating mouse brain sections from HD transgenic and control brains and paraffin-embedded HD grade III and control brain slices spanning the caudate and putamen regions were used for histochemical analysis. Primary antibodies used: anti-mTOR, anti-phospho-mTOR (Ser2448), anti-4E-BP1, anti-phospho-S6 (Ser235/236) (Cell signalling technologies), anti-LC3 (kind gift from Dr Yoshimori) and anti-huntingtin and anti-ubiquitin (both from Chemicon). Immunohistochemistry was performed by standard fluorescence methods or peroxidase labelling using Vectastain Avidin: Biotinylated enzyme Complex (ABC) kit. Relevant negative controls without the primary antibodies were performed alongside all the experiments.
LC3-II is a form of microtubule associated protein-1 light chain-3 (MAP-LC3), which is associated with mammalian autophagosomes (Kabeya, Y. et al. Embo J 19, 5720-5728 (2000)). […] While this effect was subtle, it was consistent and reproducible in four independent experiments. In addition, LC3-II increased upon induction of mutant huntingtin fragment expression in the stable PC12 cells, while no difference was seen upon induction of the Q23 cells. Another way one can score autophagic activity is to assess the number of LC3-stained vesicles.

[3] = system: mTOR-dependent TOP-translation; experiment: TOP-luciferase reporter assay in PC12 cells stably expressing Q23 or Q74; type: cell-based, rat
Experimental: PC12 cells stably expressing Q23 or Q74 were transfected with a luciferase construct having a 5′ untranslated region from the eEF2 gene containing a terminal oligopyrimidine tract (TOP-luciferase) or without the TOP sequence (Control-luciferase) along with β-galactosidase (to control transfection efficiency). Transfected cells were maintained in serum free medium with doxycycline for 36 hours following which the cells were stimulated with 15% serum with or without rapamycin for 3 h. Cells were then lysed and luciferase assays were performed according to standard protocol. COS-7 cells were co-transfected with Q23 or Q74 with control- or TOP-luciferase along with β-gal and experiments were performed as above. […] Experiments were performed in sextuplicate and repeated several times.
Phosphorylation of the ribosomal protein S6 by S6K1 positively regulates the translation initiation of mRNAs containing 5′-terminal oligopyrimidine tracts (5′-TOP), like mRNAs coding for ribosomal proteins and translation elongation factors. A previously validated luciferase reporter assay was used to measure mTOR-dependent TOP-translation (Kim, J. E. & Chen, J. Proc Natl Acad Sci USA 97, 14340-14345 (2000), Schwab, M. S. et al. Mol Cell Biol 19, 2485-2494 (1999)). Rapamycin is a specific inhibitor of mTOR. Comparison of cells for TOP-dependent translation with this assay in the presence or absence of rapamycin allows assessment of the amount of functional cellular mTOR that can be inhibited by rapamycin. In FIG. 10C, each bar represents the difference between the luciferase activities (corrected for transfection efficiency-see methods) in the presence vs. the absence of rapamycin, for a luciferase reporter with a TOP sequence (+TOP) (FIG. 10A) and otherwise identical control construct without the TOP sequence (−TOP) (FIG. 10B).

[4] = system: COS-7 cells expressing EGFP tagged wild-type HD exon 1 protein with 23 glutamine repeats, EGFP-polyalanine with 7 repeats or empty EGFP; experiment: Control constructs (Q23, A7, empty EGFP) in transiently transfected COS-7 cells; type: cell-based, African green monkey; conditions: 10 mM 3-MA
Experimental: African green monkey kidney cells (COS-7) were grown in Dulbecco's Modified Eagle Medium (DMEM, Sigma) supplemented with 10% Fetal Bovine Serum (FBS), 100 U/ml Penicillin/Streptomycin, 2 mM L-Glutamine and 1 mM Sodium Pyruvate at 37° C., 5% Carbon dioxide. The cells were grown on coverslips in six-well plates for immunofluorescence analysis, or were directly grown in six-well plates to 60-80% confluency for 24 hours for western blot analysis. Transfection was done using LipofectAMINE reagent (Invitrogen) using the manufacturer's protocol. The transfection mixture was replaced by normal culture medium after 5 hours incubation at 37° C. and the transfected cells were analysed by immunofluorescence or immunoblot 48 hours after transfection. […] Equal amounts of water or DMSO were added to the untreated controls, where relevant. The cells on coverslips were rinsed with 1×PBS, fixed with 4% paraformaldehyde in 1×PBS for 20 min and mounted in […] supplemented with 4',6-diamidino-2-phenylindole (DAPI, 3 μg/ml, Sigma) to allow visualisation of nuclear morphology. […] Aggregate formation and nuclear morphology were assessed using a fluorescence microscope. 200 EGFP positive COS-7 cells were selected and the proportion of cells with aggregates was counted. […]

Row | Compound | water solubility [1] | number of LC3-stained vesicles [2] | inhibition of TOP-dependent (+TOP) expression of luciferase ([3]; Q23-expressing PC12 cells, after serum stimulation, 3 h) | luciferase activity, control-luciferase construct without the TOP sequence (−TOP) ([3]; Q23 cells) | inhibition of TOP-dependent (+TOP) expression of luciferase ([3]; Q74-expressing PC12 cells) | aggregate formation in cells expressing Q23 or A7 [4] | levels of empty EGFP [4]
1 | rapamycin | poor | marked increase | about 18% | no inhibitory effect | no such inhibitory effect |  | 
2 | Cn1cnc(N)c2ncnc1-2 [3-MA, 3-methyl adenine] |  |  |  |  |  | did not cause aggregate formation | did not cause any change
